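Growth conditions: 96-well plates. Treatment: test compound, 48 hours, 5 concentrations. Analysis: linear interpolation between bracketing concentrations; unreached endpoints set to highest concentration. The concentration for 50% growth inhibition is given as GI50.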 Calls of active or inactive are those of the source. No stated cut-off is given here; in the data, active = GI50 up to about 1.1 µM and inactive = higher.
Columns and labels:
Assay in all cases: NCI tumour cell line growth inhibition, 48 h
K562 = system: K562
SK-OV-3 = system: SK-OV-3
HCC 2998 = system: HCC 2998
EKVX = system: EKVX
NCI-H460 = system: NCI-H460
HCT-116 = system: HCT-116
RPMI-8226 = system: RPMI-8226
LOX IMVI = system: LOX IMVI
HCT-15 = system: HCT-15
SN12C = system: SN12C
NCI-H522 = system: NCI-H522
SK-MEL-28 = system: SK-MEL-28
M14 = system: M14
HL-60 = system: HL-60
SW-620 = system: SW-620
Hs-578T = system: Hs-578T
MCF7 = system: MCF7
NCI/ADR-RES = system: NCI/ADR-RES
MDA-MB-435 = system: MDA-MB-435
PC-3 = system: PC-3

SMILES | GI50 (K562) | GI50 (SK-OV-3) | GI50 (HCC 2998) | GI50 (EKVX) | GI50 (NCI-H460) | GI50 (HCT-116) | GI50 (RPMI-8226) | GI50 (LOX IMVI) | GI50 (HCT-15) | GI50 (SN12C) | GI50 (NCI-H522) | GI50 (SK-MEL-28) | GI50 (M14) | GI50 (HL-60) | GI50 (SW-620) | GI50 (Hs-578T) | GI50 (MCF7) | GI50 (NCI/ADR-RES) | GI50 (MDA-MB-435) | GI50 (PC-3)
CSc1ccc(N2C(=O)C3c4[nH]c5ccccc5c4C4CCC(C(C)(C)C)CC4C3C2=O)cc1 (configuration not stated) | 15.9 µM (inactive) | 16.6 µM (inactive) | 15.6 µM (inactive) | 20.7 µM (inactive) | 14.1 µM (inactive) | 5.24 µM (inactive) | 28.4 µM (inactive) | 14 µM (inactive) | 66.2 µM | 16.1 µM (inactive) | 16.2 µM (inactive) | 13.8 µM (inactive) | 27.5 µM (inactive) | 13.7 µM (inactive) | 21.3 µM (inactive) |  |  |  |  | 
COc1cc(/C=C(\C#N)c2ccccc2)cc(OC)c1 | 15.2 µM (inactive) | 48.2 µM (inactive) | 67.6 µM (inactive) | 77.1 µM (inactive) | 42.6 µM (inactive) | 49.5 µM (inactive) | 35.6 µM (inactive) | 22.1 µM (inactive) | 24 µM | 74.6 µM (inactive) | 32.4 µM (inactive) | 26.1 µM (inactive) | 33.8 µM (inactive) | 24.3 µM (inactive) | 38.9 µM (inactive) |  |  |  |  | 
CS/C(c1ccccc1)=[N+](/C)[O-] | > 67.9 µM (inactive) | > 100 µM (inactive) | > 100 µM (inactive) | > 100 µM (inactive) | > 52.2 µM (inactive) | > 80 µM (inactive) | > 56.2 µM (inactive) | > 43.3 µM (inactive) | 18.1 µM | > 100 µM (inactive) | > 100 µM (inactive) | > 100 µM (inactive) | > 100 µM (inactive) | > 100 µM (inactive) | > 100 µM (inactive) |  |  |  |  | 
Cc1ccc(S(=O)(=O)N2CCSCCN(S(=O)(=O)c3ccc(C)cc3)CCN(S(=O)(=O)c3ccc(C)cc3)CC2)cc1 | > 100 µM (inactive) | 30.1 µM (inactive) | > 100 µM (inactive) | 47.5 µM (inactive) | > 100 µM (inactive) | 78.5 µM (inactive) | > 100 µM (inactive) |  |  | > 100 µM (inactive) |  | > 100 µM (inactive) | > 100 µM (inactive) | > 100 µM (inactive) | > 100 µM (inactive) | 25.7 µM (inactive) | 59.7 µM (inactive) | > 100 µM (inactive) | > 100 µM (inactive) | 
CC1=C(c2ccccc2)NC(=S)C(C)C(c2ccccc2)=N1 (configuration not stated) | 10.6 µM (inactive) | > 100 µM (inactive) | 34.3 µM (inactive) | 42.3 µM (inactive) | 34.4 µM (inactive) | 27.5 µM (inactive) | 15.4 µM (inactive) | 30 µM (inactive) | 25.8 µM | 56.2 µM (inactive) |  | 38.9 µM (inactive) |  | 12.6 µM (inactive) | 44.1 µM (inactive) |  | 27 µM (inactive) | 22.8 µM (inactive) | 18.7 µM (inactive) | 
COC(=O)c1ccc2c(c1)CC1(C2)Cc2ccc3c(c2C1)CCC3 (configuration not stated) | 6.64 µM (inactive) | 13.6 µM (inactive) | 43 µM (inactive) | 51.3 µM (inactive) |  | 23.6 µM (inactive) | 21.3 µM (inactive) | 20.8 µM (inactive) | 20.1 µM | 18.6 µM (inactive) | 20.7 µM (inactive) | 86.1 µM (inactive) | 0.574 µM (active) | 14.8 µM (inactive) | 14.4 µM (inactive) | 37.9 µM (inactive) | 23.3 µM (inactive) |  | 3.25 µM (inactive) | 6.98 µM (inactive)
O=S1OC(c2ccccc2)(c2ccccc2)C(c2ccccc2)(c2ccccc2)O1 | 25.1 µM (inactive) | > 100 µM (inactive) | > 100 µM (inactive) | 48.3 µM (inactive) | > 30.1 µM (inactive) | 4.61 µM (inactive) | 5.15 µM (inactive) | 2.56 µM (inactive) | > 30.3 µM | > 100 µM (inactive) | > 50.1 µM (inactive) | > 100 µM (inactive) | > 100 µM (inactive) | 7.96 µM (inactive) | > 100 µM (inactive) |  |  |  |  | 
O=C1CCCCC(=O)OC2(CCCCC2=O)CC1 (configuration not stated) | > 100 µM (inactive) | > 100 µM (inactive) | > 100 µM (inactive) |  | > 100 µM (inactive) | > 100 µM (inactive) | > 100 µM (inactive) |  | > 100 µM | > 100 µM (inactive) | > 100 µM (inactive) | > 100 µM (inactive) | > 100 µM (inactive) |  | > 100 µM (inactive) |  | > 100 µM (inactive) | > 100 µM (inactive) | > 100 µM (inactive) | > 100 µM (inactive)
CCN(CC)CCC(=O)/C=C/c1ccc(Cl)c(Cl)c1 | 3.68 µM (inactive) |  | 3.36 µM (inactive) | > 10 µM (inactive) | 4.94 µM (inactive) | 1.71 µM (inactive) | 0.127 µM (active) |  | 3.66 µM | 1.86 µM (inactive) | 1.58 µM (inactive) |  | 3.52 µM (inactive) | 0.302 µM (active) | 2.55 µM (inactive) |  | 3.36 µM (inactive) | 1.99 µM (inactive) | 3.21 µM (inactive) | 4.31 µM (inactive)

Source: ChEMBL document CHEMBL1201862, “PubChem BioAssay data set” (2004)
